Measured values: article PMC5590070, “Anti-Inflammatory, Antioxidant, Antibiotic, and Cytotoxic Activities of Tanacetum vulgare L. Essential Oil and Its Constituents” (Medicines, 2017)

Tests used:
[1] = test system: human skin fibroblasts WS1; experiment: Cell-based antioxidant DCFH-DA assay (tert-butylhydroperoxide-induced DCFH oxidation); settings: inhibition of DCFH oxidation induced by tert-butylhydroperoxide, WS1 cells
Procedure: Antioxidant activity was evaluated using the DCFH-DA assay as described by Girard-Lalancette et al.. To assess antioxidant activity, we incubated the human skin fibroblasts WS1 for 1 h with a growing concentration of essential oil or dissolved compounds in DMSO. We then added 100 µL of 200 µM tert-butylhydroperoxide and immediately measured fluorescence as well as again after 90 min later. Measurements were performed on an automated plate reader (Fluoroskan Ascent FL, Labsystems, Milford, MA, USA) using an excitation wavelength of 485 nm and an emission wavelength of 530 nm.

[2] = test system: NO production in murine macrophage RAW 264.7 cells; experiment: Inhibition of NO production in LPS-stimulated RAW 264.7 macrophages (Griess reaction); format: cell-based; settings: inhibition of NO production, RAW 264.7, 100 ng·mL^−1 LPS, 24 h
Procedure: We evaluated the inhibition NO production by T. vulgare essential oil and compounds as described by Legault et al.. Control L-NAME was used as positive control. Murine macrophage RAW 264.7 cells were incubated with essential oil or dissolved compounds in DMSO and then stimulated with 100 ng·mL^−1 LPS and incubated at 37 °C. After 24 h, we collected the cell-free supernatants and immediately determined the NO concentration using the Griess reaction. We read the absorbance at 540 nm using an automated Varioskan Ascent plate reader (Labsystems, Milford, MA, USA), and quantified the presence of nitrite by comparing with a NaNO2 standard curve.

[3] = test system: Staphylococcus aureus (ATCC 25923); experiment: Antibacterial hydrophobic assay (resazurin); format: cell-based; settings: S. aureus, 50% inhibition of bacterial growth
Source text: (§1) We tested the antibacterial activities of T. vulgare essential oil and compounds against gram-negative Escherichia coli (ATCC bacteria 25922) and gram-positive Staphylococcus aureus (ATCC bacteria 25923) using the antibacterial hydrophobic assay as described by Côté et al.. This new method was developed and used in this work as classical methods including disc diffusion and microdilution assays are sometimes inefficient for testing a matrix or compounds of a hydrophobic nature. Briefly, after microorganisms passed 16–18 h at 37 °C in a nutrient broth base (Difco), we transferred 20 µL methanol containing growing concentrations of essential oil and compounds (3.1 to 200 µg·mL^−1) onto nutrient agar of 96-well plates. We then added bacterial strains having a concentration of 5 × 10^3 colony forming units (CFU) per mL of nutrient broth. […] The blank consisted of culture medium only and was subtracted from all subsequent measurements of every other well. The 96-well plates were then incubated at 37 °C for 5 h to foster bacterial growth. We then added 100 µL of resazurin sodium salt solution having a concentration of 50 µg·mL^−1 (Sigma R-2127, St-Louis, MO, USA) to each well.

[4] = test system: Escherichia coli (ATCC 25922); experiment: Antibacterial hydrophobic assay (resazurin); format: cell-based; settings: E. coli, 50% inhibition of bacterial growth
Source text: as §1

[5] = test system: human skin fibroblasts WS1; experiment: Cytotoxic assay, resazurin reduction test, 48 h; format: cell-based; settings: WS1, 48 h
Procedure: (§2) We plated in 96-well microplates—each containing a 100 µL culture medium—exponentially growing cells of human skin fibroblasts WS1, human HaCaT keratinocytes, human lung carcinoma A-549, and human colon adenocarcinoma DLD-1 at a density of 5 × 10^3 cells per well (Costar, Corning Inc., Lowell, MA, USA). The cells were allowed to adhere for 16 h before treatment. We then treated cells with T. vulgare essential oil or dissolved compounds in DMSO. The final concentration of DMSO in the culture medium was 0.5% (v/v) to avoid solvent toxicity. After 48 h, we assessed the cytotoxicity using the resazurin reduction test. Fluorescence was measured on an automated Fluoroskan Ascent FL^TM plate reader (Labsystems, Milford, MA, USA) using an excitation wavelength of 530 nm and an emission wavelength of 590 nm.

[6] = test system: human lung carcinoma A-549; experiment: Cytotoxic assay, resazurin reduction test, 48 h; format: cell-based; settings: A-549, 48 h
Procedure: as §2

[7] = test system: human colon adenocarcinoma DLD-1; experiment: Cytotoxic assay, resazurin reduction test, 48 h; format: cell-based; settings: DLD-1, 48 h
Procedure: as §2

Q: Which “Antioxidant IC50” value [1] does the source give for `C/C1=C\CC/C(C)=C/CC(C)(C)/C=C/C1` [α-Humulene] here?
A: >200 µg/mL

Q: And the “Anti-Inflammation IC50” value [2]?
A: 15 ± 2 µg/mL

Q: What about the “Antibacterial IC50 S. aureus” value [3] of the same molecule?
A: >200 µg/mL

Q: What about the “Antibacterial IC50 E. coli” value [4] of the same molecule?
A: >200 µg/mL

Q: And the “Cytotoxicity IC50 WS1” value [5]?
A: 24 ± 3 µg/mL

Q: What about the “Cytotoxicity IC50 A549” value [6] of the same molecule?
A: 28 ± 1 µg/mL

Q: And the “Cytotoxicity IC50 DLD1” value [7]?
A: 43 ± 3 µg/mL
